O=Cc1cc(C=O)cc(C=O)c1
solubility (mole fraction) (in 1,4-dioxane, 288.15 K): 0.0135
solubility (mole fraction) (in 1,4-dioxane, 293.15 K): 0.0164
solubility (mole fraction) (in 1,4-dioxane, 298.15 K): 0.0206
solubility (mole fraction) (in 1,4-dioxane, 303.15 K): 0.0249
solubility (mole fraction) (in 1,4-dioxane, 308.15 K): 0.0288
solubility (mole fraction) (in 1,4-dioxane, 313.15 K): 0.0336
solubility (mole fraction) (in 1,4-dioxane, 318.15 K): 0.0372
solubility (mole fraction) (in 1,4-dioxane, 323.15 K): 0.041
solubility (mole fraction) (in acetone, 283.15 K): 0.01
solubility (mole fraction) (in acetone, 288.15 K): 0.0112
solubility (mole fraction) (in acetone, 293.15 K): 0.0132
solubility (mole fraction) (in acetone, 298.15 K): 0.0152
solubility (mole fraction) (in acetone, 303.15 K): 0.0191
solubility (mole fraction) (in acetone, 308.15 K): 0.023
solubility (mole fraction) (in acetone, 313.15 K): 0.0265
solubility (mole fraction) (in acetone, 318.15 K): 0.0307
solubility (mole fraction) (in acetone, 323.15 K): 0.035
solubility (mole fraction) (in acetonitrile, 283.15 K): 0.00502
solubility (mole fraction) (in acetonitrile, 288.15 K): 0.00616
solubility (mole fraction) (in acetonitrile, 293.15 K): 0.00711
solubility (mole fraction) (in acetonitrile, 298.15 K): 0.00872
solubility (mole fraction) (in acetonitrile, 303.15 K): 0.01
solubility (mole fraction) (in acetonitrile, 308.15 K): 0.0113
solubility (mole fraction) (in acetonitrile, 313.15 K): 0.0137
solubility (mole fraction) (in acetonitrile, 318.15 K): 0.0153
solubility (mole fraction) (in acetonitrile, 323.15 K): 0.0178
solubility (mole fraction) (in ethanol, 283.15 K): 0.0018
solubility (mole fraction) (in ethanol, 288.15 K): 0.00208
solubility (mole fraction) (in ethanol, 293.15 K): 0.00251
solubility (mole fraction) (in ethanol, 298.15 K): 0.00297
solubility (mole fraction) (in ethanol, 303.15 K): 0.00365
solubility (mole fraction) (in ethanol, 308.15 K): 0.00429
solubility (mole fraction) (in ethanol, 313.15 K): 0.0052
solubility (mole fraction) (in ethanol, 318.15 K): 0.00614
solubility (mole fraction) (in ethanol, 323.15 K): 0.00703
solubility (mole fraction) (in isobutanol, 283.15 K): 0.000219
solubility (mole fraction) (in isobutanol, 288.15 K): 0.000308
solubility (mole fraction) (in isobutanol, 293.15 K): 0.000396
solubility (mole fraction) (in isobutanol, 298.15 K): 0.000488
solubility (mole fraction) (in isobutanol, 303.15 K): 0.000917
solubility (mole fraction) (in isobutanol, 308.15 K): 0.00193
solubility (mole fraction) (in isobutanol, 313.15 K): 0.00277
solubility (mole fraction) (in isobutanol, 318.15 K): 0.00387
solubility (mole fraction) (in isobutanol, 323.15 K): 0.00601
solubility (mole fraction) (in isopropanol, 283.15 K): 0.000462
solubility (mole fraction) (in isopropanol, 288.15 K): 0.000512
solubility (mole fraction) (in isopropanol, 293.15 K): 0.000605
solubility (mole fraction) (in isopropanol, 298.15 K): 0.00069
solubility (mole fraction) (in isopropanol, 303.15 K): 0.000803
solubility (mole fraction) (in isopropanol, 308.15 K): 0.00147
solubility (mole fraction) (in isopropanol, 313.15 K): 0.00216
solubility (mole fraction) (in isopropanol, 318.15 K): 0.00291
solubility (mole fraction) (in isopropanol, 323.15 K): 0.00363
solubility (mole fraction) (in methanol, 283.15 K): 0.00351
solubility (mole fraction) (in methanol, 288.15 K): 0.00442
solubility (mole fraction) (in methanol, 293.15 K): 0.00563
solubility (mole fraction) (in methanol, 298.15 K): 0.00691
solubility (mole fraction) (in methanol, 303.15 K): 0.00858
solubility (mole fraction) (in methanol, 308.15 K): 0.0101
solubility (mole fraction) (in methanol, 313.15 K): 0.0122
solubility (mole fraction) (in methanol, 318.15 K): 0.0142
solubility (mole fraction) (in methanol, 323.15 K): 0.0158
solubility (mole fraction) (in n-butanol, 283.15 K): 0.000718
solubility (mole fraction) (in n-butanol, 288.15 K): 0.000765
solubility (mole fraction) (in n-butanol, 293.15 K): 0.000864
solubility (mole fraction) (in n-butanol, 298.15 K): 0.0013
solubility (mole fraction) (in n-butanol, 303.15 K): 0.00181
solubility (mole fraction) (in n-butanol, 308.15 K): 0.00242
solubility (mole fraction) (in n-butanol, 313.15 K): 0.00288
solubility (mole fraction) (in n-butanol, 318.15 K): 0.0037
solubility (mole fraction) (in n-butanol, 323.15 K): 0.00565
solubility (mole fraction) (in n-pentanol, 283.15 K): 0.00134
solubility (mole fraction) (in n-pentanol, 288.15 K): 0.00153
solubility (mole fraction) (in n-pentanol, 293.15 K): 0.00185
solubility (mole fraction) (in n-pentanol, 298.15 K): 0.00216
solubility (mole fraction) (in n-pentanol, 303.15 K): 0.00244
solubility (mole fraction) (in n-pentanol, 308.15 K): 0.00276
solubility (mole fraction) (in n-pentanol, 313.15 K): 0.00341
solubility (mole fraction) (in n-pentanol, 318.15 K): 0.0042
solubility (mole fraction) (in n-pentanol, 323.15 K): 0.00538
solubility (mole fraction) (in n-propanol, 283.15 K): 0.000909
solubility (mole fraction) (in n-propanol, 288.15 K): 0.00104
solubility (mole fraction) (in n-propanol, 293.15 K): 0.00131
solubility (mole fraction) (in n-propanol, 298.15 K): 0.00154
solubility (mole fraction) (in n-propanol, 303.15 K): 0.00194
solubility (mole fraction) (in n-propanol, 308.15 K): 0.00243
solubility (mole fraction) (in n-propanol, 313.15 K): 0.00296
solubility (mole fraction) (in n-propanol, 318.15 K): 0.00347
solubility (mole fraction) (in n-propanol, 323.15 K): 0.00405
solubility (mole fraction) (in sec-butanol, 283.15 K): 0.000294
solubility (mole fraction) (in sec-butanol, 288.15 K): 0.000394
solubility (mole fraction) (in sec-butanol, 293.15 K): 0.000601
solubility (mole fraction) (in sec-butanol, 298.15 K): 0.000789
solubility (mole fraction) (in sec-butanol, 303.15 K): 0.00101
solubility (mole fraction) (in sec-butanol, 308.15 K): 0.00128
solubility (mole fraction) (in sec-butanol, 313.15 K): 0.00155
solubility (mole fraction) (in sec-butanol, 318.15 K): 0.00206
solubility (mole fraction) (in sec-butanol, 323.15 K): 0.00254
solubility (mole fraction) (in water, 283.15 K): 4.1e-05
solubility (mole fraction) (in water, 288.15 K): 6.1e-05
solubility (mole fraction) (in water, 293.15 K): 8.8e-05
solubility (mole fraction) (in water, 298.15 K): 0.000108
solubility (mole fraction) (in water, 303.15 K): 0.000132
solubility (mole fraction) (in water, 308.15 K): 0.000152
solubility (mole fraction) (in water, 313.15 K): 0.00017
solubility (mole fraction) (in water, 318.15 K): 0.000185
solubility (mole fraction) (in water, 323.15 K): 0.000198
